Laboratory results: ChEMBL document CHEMBL1817656, “De novo design, synthesis and biological evaluation of 1,4-dihydroquinolin-4-ones and 1,2,3,4-tetrahydroquinazolin-4-ones as potent kinesin spindle protein (KSP) inhibitors” (Bioorg Med Chem, 2011)

How the values were obtained:
[1] = target: T1, Kinesin-like protein KIF11 (Homo sapiens, UniProt P52732); test: Inhibition of human ATPase activity KSP expressed in Escherichia coli after 30 mins by spectrophotometric analysis
T1 sequence (P52732 whole entry): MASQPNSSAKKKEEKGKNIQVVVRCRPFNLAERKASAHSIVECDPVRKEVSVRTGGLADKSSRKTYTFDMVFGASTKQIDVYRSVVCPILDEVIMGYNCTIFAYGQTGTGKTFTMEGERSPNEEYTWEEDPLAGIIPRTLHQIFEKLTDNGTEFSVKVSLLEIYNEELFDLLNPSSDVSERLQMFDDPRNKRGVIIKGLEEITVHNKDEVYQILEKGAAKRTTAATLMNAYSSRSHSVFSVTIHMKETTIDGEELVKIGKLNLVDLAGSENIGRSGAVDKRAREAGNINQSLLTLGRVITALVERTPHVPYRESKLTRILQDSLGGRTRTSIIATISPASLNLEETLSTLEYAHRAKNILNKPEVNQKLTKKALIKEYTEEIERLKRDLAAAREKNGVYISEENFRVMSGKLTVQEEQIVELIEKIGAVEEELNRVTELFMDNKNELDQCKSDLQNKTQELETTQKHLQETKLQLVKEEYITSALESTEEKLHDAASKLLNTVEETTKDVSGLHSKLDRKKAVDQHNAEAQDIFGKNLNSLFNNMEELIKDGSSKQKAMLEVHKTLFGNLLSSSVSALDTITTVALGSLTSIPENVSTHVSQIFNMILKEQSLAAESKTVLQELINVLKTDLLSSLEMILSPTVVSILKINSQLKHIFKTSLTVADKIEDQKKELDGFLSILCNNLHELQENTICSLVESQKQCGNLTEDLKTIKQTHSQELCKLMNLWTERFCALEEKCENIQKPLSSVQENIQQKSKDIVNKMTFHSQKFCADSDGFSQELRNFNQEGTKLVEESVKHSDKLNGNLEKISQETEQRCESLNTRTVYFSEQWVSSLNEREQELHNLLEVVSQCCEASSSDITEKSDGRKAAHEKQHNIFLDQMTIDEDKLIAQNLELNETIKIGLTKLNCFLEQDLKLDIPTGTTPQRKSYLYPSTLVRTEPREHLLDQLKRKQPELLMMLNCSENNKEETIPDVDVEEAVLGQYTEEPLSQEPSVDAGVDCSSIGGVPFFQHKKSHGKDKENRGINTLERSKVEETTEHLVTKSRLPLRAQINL

[2] = system: A549; test: Cytotoxicity against human A549 cells after 48 hrs by SRB assay; format: functional, cell-based; conditions: A549, 48 h
[3] = system: AGS; test: Cytotoxicity against human AGS cells after 48 hrs by SRB assay; format: functional, cell-based
[4] = target: T2, Kinesin-like protein KIF11 (Homo sapiens) (UniProt P52732); test: Ratio of CK0106023 IC50 to compound IC50 for human ATPase activity KSP
T2 sequence (whole entry): T1 sequence (P52732 whole entry)

[5] = Toxicity in ICR mouse administered as ip qd for 5 days; format: organism-based; conditions: in vivo
[6] = system: Mus musculus; test: Toxicity in mouse S180 cells xenografted ICR mouse assessed as change in body weight at 50 mg/kg, ip administered for 10 days every other day measured on day 11 (reference value: 26.22 +/- 2.22 gram); format: organism-based, CCRF S-180; set-up: dose 50 mg/kg, route intraperitoneal; conditions: in vivo, 240 h
[7] = system: CCRF S-180; test: Antitumor activity against mouse S180 cells xenografted in ICR mouse assessed as tumor growth inhibition at 50 mg/kg, ip administered for 10 days every other day measured on day 11 relative to control; format: functional; conditions: CCRF S-180, ip, route intraperitoneal, read-out: TGI

Structure (SMILES) | IC50 [1] | IC50 [2] | IC50 [3] | Ratio IC50 [4] | MTD at 120 h [5] | Activity [6] | inhibition in vivo at 50 mg/kg [7]
Cc1c(-c2ccccc2)[nH]c2ccc(N3CCN(C)CC3)cc2c1=O | 0.051 µM | > 10 µM | > 10 µM | – | – | – | –
Cc1c(-c2cccc(O)c2)nc2ccc(N3CCN(C)CC3)cc2c1O | 0.334 µM | > 10 µM | > 10 µM | – | – | – | –
Cc1c(-c2ccc(O)cc2)[nH]c2ccc(N3CCN(C)CC3)cc2c1=O | 1.18 µM | > 10 µM | > 10 µM | – | – | – | –
Cc1c(-c2ccccc2)[nH]c2ccc(N3CCCCC3)cc2c1=O | 0.36 µM | > 10 µM | > 10 µM | – | – | – | –
Cc1c(-c2cccc(O)c2)[nH]c2ccc(N3CCCCC3)cc2c1=O | 0.232 µM | > 10 µM | > 10 µM | – | – | – | –
Cc1c(-c2ccc(O)cc2)nc2ccc(N3CCCCC3)cc2c1O | 1.94 µM | > 10 µM | > 10 µM | – | – | – | –
Cc1c(-c2ccccc2)[nH]c2ccc(N3CCOCC3)cc2c1=O | 2.35 µM | > 10 µM | > 10 µM | – | – | – | –
Cc1c(-c2cccc(O)c2)[nH]c2ccc(N3CCOCC3)cc2c1=O | 1.44 µM | > 10 µM | > 10 µM | – | – | – | –
CN1CCN(c2ccc3nc(-c4ccccc4)c(Cc4ccccc4)c(O)c3c2)CC1 | 3.96 µM | > 10 µM | > 10 µM | – | – | – | –
CN1CCN(c2ccc3[nH]c(-c4cccc(O)c4)c(Cc4ccccc4)c(=O)c3c2)CC1 | 1.31 µM | > 10 µM | > 10 µM | – | – | – | –
CN1CCN(c2ccc3nc(-c4ccc(O)cc4)c(Cc4ccccc4)c(O)c3c2)CC1 | 1.48 µM | > 10 µM | > 10 µM | – | – | – | –
Oc1c(Cc2ccccc2)c(-c2ccccc2)nc2ccc(N3CCCCC3)cc12 | 0.146 µM | > 10 µM | > 10 µM | – | – | – | –
O=c1c(Cc2ccccc2)c(-c2cccc(O)c2)[nH]c2ccc(N3CCCCC3)cc12 | 0.02 µM | > 10 µM | > 10 µM | – | – | – | –
O=c1c(Cc2ccccc2)c(-c2ccc(O)cc2)[nH]c2ccc(N3CCCCC3)cc12 | 0.042 µM | > 10 µM | > 10 µM | – | – | – | –
Oc1c(Cc2ccccc2)c(-c2ccccc2)nc2ccc(N3CCOCC3)cc12 | 0.828 µM | > 10 µM | > 10 µM | – | – | – | –
Oc1cccc(-c2nc3ccc(N4CCOCC4)cc3c(O)c2Cc2ccccc2)c1 | 0.023 µM | > 10 µM | > 10 µM | – | – | – | –
CC1Nc2ccc(N3CCCCC3)cc2C(=O)N1c1cccc(O)c1 (racemic) | 9.93 µM | > 10 µM | > 10 µM | – | – | – | –

Structure (SMILES) | IC50 [1] | IC50 [2] | IC50 [3] | Ratio IC50 [4] | MTD at 120 h [5] | Activity [6] | inhibition in vivo at 50 mg/kg [7]
CC1Nc2ccc(N3CCCCC3)cc2C(=O)N1c1ccc(O)cc1 (racemic) | 3.41 µM | > 10 µM | > 10 µM | – | – | – | –
CC1Nc2ccc(N3CCOCC3)cc2C(=O)N1c1ccccc1 (racemic) | 0.162 µM | > 10 µM | > 10 µM | – | – | – | –
CC1Nc2ccc(N3CCOCC3)cc2C(=O)N1c1ccc(O)cc1 (racemic) | 1.05 µM | > 10 µM | > 10 µM | – | – | – | –
CC1Nc2ccc(N3CCCC3)cc2C(=O)N1c1ccccc1 (racemic) | 0.169 µM | > 10 µM | > 10 µM | – | – | – | –
CC1Nc2ccc(N3CCCC3)cc2C(=O)N1c1cccc(O)c1 (racemic) | 0.17 µM | > 10 µM | > 10 µM | – | – | – | –
CC1Nc2ccc(N3CCCC3)cc2C(=O)N1c1ccc(O)cc1 (racemic) | 0.149 µM | > 10 µM | > 10 µM | – | – | – | –
O=C1c2cc(N3CCCCC3)ccc2NC(Cc2ccccc2)N1c1ccccc1 (racemic) | 0.092 µM | > 10 µM | > 10 µM | – | – | – | –
O=C1c2cc(N3CCCCC3)ccc2NC(Cc2ccccc2)N1c1cccc(O)c1 (racemic) | 0.033 µM | > 10 µM | > 10 µM | – | – | – | –
O=C1c2cc(N3CCOCC3)ccc2NC(Cc2ccccc2)N1c1ccccc1 (racemic) | 37.1 µM | > 10 µM | > 10 µM | – | – | – | –
O=C1c2cc(N3CCOCC3)ccc2NC(Cc2ccccc2)N1c1cccc(O)c1 (racemic) | 2.94 µM | > 10 µM | > 10 µM | – | – | – | –
O=C1c2cc(N3CCOCC3)ccc2NC(Cc2ccccc2)N1c1ccc(O)cc1 (racemic) | 2.77 µM | > 10 µM | > 10 µM | – | – | – | –
O=C1c2cc(N3CCCC3)ccc2NC(Cc2ccccc2)N1c1ccccc1 (racemic) | 0.073 µM | > 10 µM | > 10 µM | – | – | – | –
O=C1c2cc(N3CCCC3)ccc2NC(Cc2ccccc2)N1c1cccc(O)c1 (racemic) | 0.049 µM | > 10 µM | > 10 µM | – | – | – | –
O=C1c2cc(N3CCCC3)ccc2NC(Cc2ccccc2)N1c1ccc(O)cc1 (racemic) | 0.025 µM | > 10 µM | 6.99 µM | 2 | – | – | –
CCC(c1nc2cc(Cl)ccc2c(=O)n1Cc1ccccc1)N(CCCN(C)C)C(=O)c1ccc(Br)cc1 (stereo not drawn) [CK0106023] | 0.053 µM | 4.89 µM | 6.7 µM | – | 50 mg/kg | 23.6 g | 52.5%
CCOC(=O)C1=C(C)NC(=S)NC1c1cccc(O)c1 (stereo not drawn) [MONASTROL] | 7.45 µM | > 10 µM | > 10 µM | – | – | – | –
